Laboratory results: ChEMBL document CHEMBL4689842, “EUbOPEN Chemogenomics Library wave 1” (2021)

Key:
Assay type in all cases: toxicity, cell-based
Fibroblast = experiment: Incucyte cell viability with human fibroblast; conditions: 10 µM, compound concentration 10 uM
U2OS = experiment: Incucyte cell viability with U2OS; conditions: human, 10 µM, compound concentration 10 uM
HEK-293T = experiment: Incucyte cell viability with HEK293T; conditions: human, 10 µM, compound concentration 10 uM
[1] = 0 h, replicate number 1, timepoint 0 hours
[2] = 0 h, replicate number 2, timepoint 0 hours
[3] = 6 h, replicate number 2, timepoint 6 hours
[4] = 12 h, replicate number 1, timepoint 12 hours
[5] = 12 h, replicate number 2, timepoint 12 hours
[6] = 18 h, replicate number 1, timepoint 18 hours
[7] = 18 h, replicate number 2, timepoint 18 hours
[8] = 24 h, replicate number 1, timepoint 24 hours
[9] = 24 h, replicate number 2, timepoint 24 hours
[10] = 6 h, replicate number 1, timepoint 6 hours
Further: filed as whole numbers so only -1 and 0 and 1 occur.

| SMILES | Growth Rate (Fibroblast; [1]) | Growth Rate (Fibroblast; [3]) | Growth Rate (Fibroblast; [4]) | Growth Rate (Fibroblast; [5]) | Growth Rate (Fibroblast; [6]) | Growth Rate (Fibroblast; [7]) | Growth Rate (Fibroblast; [8]) | Growth Rate (U2OS; [1]) | Growth Rate (U2OS; [4]) | Growth Rate (U2OS; [6]) | Growth Rate (U2OS; [8]) | Growth Rate (U2OS; [9]) | Growth Rate (HEK-293T; [1]) | Growth Rate (HEK-293T; [2]) | Growth Rate (HEK-293T; [10]) | Growth Rate (HEK-293T; [4]) | Growth Rate (HEK-293T; [6]) | Growth Rate (HEK-293T; [8]) | Growth Rate (U2OS; [2]) | Growth Rate (U2OS; [10]) | other results |
| --- | --- | --- | --- | --- | --- | --- | --- | --- | --- | --- | --- | --- | --- | --- | --- | --- | --- | --- | --- | --- | --- |
| NS(=O)(=O)c1c(Cl)ccc(NC(=O)Nc2cccc(Cl)c2Cl)c1O | 0 | 0 | 1 | 0 | 1 | 0 | 1 | 0 | 0 | 1 | 1 | 0 | 1 | 0 | 1 | 1 | 0 | 0 |  |  | Growth Rate (Fibroblast; [2]): 1; Growth Rate (Fibroblast; [9]): 0; Growth Rate (HEK-293T; [7]): 1; Growth Rate (HEK-293T; [9]): 1 |
| OCCn1cc(-c2cnc3nnn(Cc4ccc5ncccc5c4)c3n2)cn1 [PF-04217903] | 0 | 0 |  | 0 | 1 | 0 | 1 |  | 1 | 1 | 1 | 0 | 1 |  | 0 | 1 | 1 | 1 | 0 | 1 | Growth Rate (Fibroblast; [10]): 1; Growth Rate (U2OS; [3]): 0; Growth Rate (U2OS; [5]): 0; Growth Rate (U2OS; [7]): 0 |
| CO[C@@H](C)c1c(Nc2ccc([C@@H](N(C)C(=O)C3CCS(=O)(=O)CC3)C(F)(F)F)cc2)cnc2cc(Cl)nn12 [NVS-MALT1-C] | 0 |  | 1 | 0 | 1 |  | 1 | 0 | 1 | 0 | 1 | 0 | 1 |  | 0 | 0 | 0 | 0 | 1 | 0 | Growth Rate (Fibroblast; [10]): 0 |
| Cc1nc(NC(=O)N2CCC[C@H]2C(N)=O)sc1-c1ccnc(C(C)(C)C(F)(F)F)c1 [ALPELISIB] | 1 | 1 | 1 | 0 | 1 | 0 | 1 | 1 | 1 | 0 | 0 | 1 |  |  | 0 |  | 1 | 1 | 0 | 1 | Growth Rate (Fibroblast; [2]): 0; Growth Rate (Fibroblast; [9]): 0; Growth Rate (U2OS; [7]): 1; Growth Rate (HEK-293T; [5]): 0 |
| O=C(NOCC1CC1)c1ccc(F)c(F)c1Nc1ccc(I)cc1Cl [CI-1040] | 0 | 1 | 1 |  | 1 |  | 1 | 0 | 0 | 0 | 0 |  | 0 | 1 |  | 0 | 0 | 0 |  | 0 | Growth Rate (HEK-293T; [3]): 0 |
| C=CC(=O)Nc1ccc2[nH]c(=O)n(C3CCN(C(=O)c4ccc(-c5nc6cc[nH]c(=O)c6cc5-c5ccccc5)cc4)CC3)c2c1 | 0 |  | 1 |  | 1 |  | 1 |  | 1 | 1 | 1 |  | 0 |  |  |  |  |  | 0 | 1 | Growth Rate (HEK-293T; [9]): 1 |
| O=C(Nc1cccnn1)N1CC(C/C=C/c2cncc(Oc3ccc(C(F)(F)F)cn3)n2)C1 | 0 |  |  | 1 |  | 1 | 1 | 0 | 1 | 1 | 1 | 0 | 0 | 1 | 0 |  |  | 1 | 1 | 0 | Growth Rate (U2OS; [7]): 0; Growth Rate (HEK-293T; [5]): 1 |
| C[C@@H]1CN(c2cc(-c3n[nH]c4ccc(OC5(C)CC5)cc34)ncn2)C[C@H](C)O1 [MLi-2] | 0 | 0 | 1 | 0 | 1 | 0 | 0 |  | 1 | 1 | 1 |  | 0 | 1 | 0 | 1 | 1 | 1 | 0 | 1 | Growth Rate (Fibroblast; [10]): 1; Growth Rate (HEK-293T; [9]): 0 |
| Cc1ccc(-c2cnc([C@@]3(O)CC[C@H](C(=O)O)C(C)(C)C3)s2)cc1Nc1cccc(C(F)(F)F)n1 [MRL-SYKi-NC] |  |  | 0 |  | 0 |  | 0 | 0 | 0 | 0 | 0 | 1 | 0 | 1 | 0 | 1 | 1 | 1 |  | 0 | Growth Rate (Fibroblast; [2]): 0; Growth Rate (Fibroblast; [10]): 0; Growth Rate (U2OS; [5]): 1; Growth Rate (U2OS; [7]): 1; Growth Rate (HEK-293T; [5]): 0; Growth Rate (HEK-293T; [9]): 0 |
